In patent publication US6372727B1, “Metalloporphyrin treatment of neurologic disease” (UAB Research Foundation, priority 1999, dated 2002):

What was measured:
[1] = system: ALS-SOD1 (G93A) transgenic mice; experiment: Survival of ALS-SOD1 (G93A) transgenic mice; assay type: in vivo
Procedure: FIG. 13A: Transgenic mice (n=9) were injected intraperitoneally with 3 mg/kg/day of a low molecular weight (844.6) synthetic iron porphyrin. […] Treatment was continued until such time that signs of diaphragm weakness (labored breathing) necessitated sacrifice. A control group of transgenic mice was treated with vehicle only (phosphate-buffered saline). FIG. 13B: Transgenic mice were injected intraperitoneally with 1 mg/kg/day of a low molecular weight (844.6) synthetic iron porphyrin. Treatment began at day 60 prior to the onset of symptoms. A control group of transgenic mice was treated with vehicle only (phosphate-buffered saline).
Mice transgenic for the G93A mutated form of SOD1 are generally accepted as the standard model of motor neuron disease. […] This compound extended the mean survival time by 13 days (from 127 to 140 days) (FIG. 13A).
A group of G93A mice was treated with 1 mg/kg of FeTCPP intraperitoneally beginning at 60 days of age. As with the control group in FIG. 13A, none of the control group in this test survived past 132 days. However, the probability of survival at 140 days was about 37% and at approximately 180 days survival was still at 20%.

[2] = system: cultured motor neurons; experiment: Protection of cultured motor neurons from growth factor withdrawal; assay type: cell-based
Procedure: Culture Motor neurons were prepared from embryonic day 15 (E15) rat spinal cords by a combination of metrizamide gradient centrifugation and immunopanning with the monoclonal antibody IgG192 (Chandler et al., J. Biol. Chem. 259:6882-6889, 1984) as previously described (Estevez et al., J Neurosci 18:923-931, 1998; Henderson C E, Bloch-Gallego E, Camu W (1995): Purification and culture of embryonic motorneurons. In Cohen J, Wilkin G (eds): Neural Cell Culture: A Practical Approach. Oxford, England: IRL Press, pp 69-81). Long-term cultures of motor neurons were performed as described by Pennica et al. (Pennica et al., Neuron 17:63-74, 1996). Briefly, motor neurons were plated at a density of 200 cells/cm2 on 35 mm dishes precoated with polyornithine-laminin in Neurobasal medium supplemented with B27 (Life Technologies, Grand Island, N.Y.), 2% horse serum, 0.5 mM L-glutamine, 25 μM 2-mercaptoethanol and 25 μM L-glutamate. Every 3-4 days ¾ of the culture medium was replaced by fresh medium lacking L-glutamate and containing sufficient quantities of BDNF or FeTCPP to supplement the 2 ml of medium in the dish. More than 94% of the cells were immunoreactive for the p75 low-affinity neurotrophic receptor (p75NTR) and Islet ½, which are markers for motor neurons. The experiments were repeated at least 2 times using the same lot of Neurobasal medium and B 27 supplement.
The number of motor neurons with neurites longer than 4 soma diameters present in parallel cultures treated with BDNF at a final concentration of 100 pg/ml 24 h after plating or culture media replacement was considered 100% motor neuron survival. FeTCPP was resuspended in complete Neurobasal medium at a 5 mM concentration. Dilutions were performed of the stock solution to add 20 μl per dish.
Rat motor neurons survive many days in culture when brain-derived neurotrophic factor (BDNF) is added to the culture media. Because motor neurons are the cells that preferentially die in ALS, primary cultures of motor neurons represent the best non-animal model of ALS. Withdrawal of BDNF results in apoptotic death of >70% of motor neurons within 24 h. Cell death was correlated with expression of the neuronal form of nitric oxide synthase (nNOS) and the production of peroxynitrite, as evidenced by protein tyrosine nitration. When FeTCPP is added to the culture media in place of BDNF and motor neuron survival is assessed at 24 h, some protection is seen at concentrations as low as 0.01 μM (FIG. 10A). […] Additionally, a comparison of the effect of FETCPP and its tetra-methyl ester derivative, TMeO-FeTCPP, on motor neuron survival at 72 hr.

[3] = MP-catalyzed nitration of HPA: effect of pH, reductants and serum; assay type: biochemical
Procedure: Single additions of 100 μM peroxynitrite were made to reactions containing ascorbate or GSH. Three sequential additions of 100 μM peroxynitrite were made to all other reactions.
This level of bicarbonate results in rapid saturation of the solution with carbon dioxide (˜1 mM). Solutions were placed into a rapidly stirred cuvette and nine bolus additions (50 μM×3, 100 μM×3, and 200 μM×3) of peroxynitrite were made sequentially while the absorbance was monitored. Increasing amounts of peroxynitrite were added in a sequential manner in order to determine whether nitration efficiency varied with concentration and to determine whether nitration catalysis was maintained with multiple additions (see FIG. 6 inset). Nitration efficiency was defined as the amount of nitropeptide formed per amount of peroxynitrite added and was calculated for each peroxynitrite addition; the values shown are the average of all nine peroxynitrite additions. The absorbance changes associated with nitrotyrosine peptide production were monitored simultaneously at 380, 430, and 460 nm. The extinction coefficients for nitrated GYA at pH 7.4 are 4,400 M^−1cm^−1 at 430 nm and 2,200 M^−1cm^−1 at both 380 and 460 nm. […] Wavelengths used to quantify nitrotyrosine production were chosen to minimize interference by the particular metalloporphyrin used. Experiments using HPA as a nitration target (FIG. 7) contained 8 mM HPA in either 0.1 M potassium phosphate, pH 7.4 or 0.1 M sodium borate, pH 9.1.

[4] = 1 mg/kg intraperitoneally beginning at 60 days of age

Compound	probability of survival at 140 days [1, 4]	survival at approximately 180 days [1, 4] [%]	mean survival time ([1]; 5 mg/kg, treatment from onset of symptoms) [days]	extension of mean survival time ([1]; 5 mg/kg, treatment from onset of symptoms, versus vehicle) [days]	progression of motor neuron death in mice ([1]; G93A mutant of Cu,Zn superoxide dismutase transgene)	upper limit of survival time ([1]; administered at the onset of symptoms)	survival of cultured motor neurons deprived of growth factors [2]	long-term motor neuron survival compared with BDNF ([2]; 0.1 μM and 1.0 μM)	maximal cell survival ([2]; 0.1 μM, 24 h, in place of BDNF, 100% = BDNF 100 pg/ml) [%]	cell survival ([2]; 100 μM, 24 h, in place of BDNF) [%]	dose-response for survival of motor neurons at 72 h ([2]; 72 h)	lowest concentration at which some protection is seen ([2]; added in place of BDNF, survival at 24 h) [µM]	cell survival at day 16 ([2]; lower dose (0.1 μM), long-term culture) [%]	toxicity to motor neurons ([2]; relatively high concentrations, 100 μM)	enhancement of nitration yield at pH 9.1 ([3]; 8 mM HPA, 10 μM MP, 0.1 M sodium borate pH 9.1, versus non-catalyzed) [fold]	effect of ascorbate and GSH on nitration enhancement ([3]; concentrations which eliminated non-catalyzed nitration)	ascorbate concentration giving complete inhibition of nitration enhancement ([3]; dose-dependent, not shown) [mM]	effect of serum on nitration enhancement ([3]; fresh human serum 1:10 added prior to peroxynitrite)
O=C(O)c1ccc(-c2c3nc(c(-c4ccc(C(=O)O)cc4)c4ccc([n-]4)c(-c4ccc(C(=O)O)cc4)c4nc(c(-c5ccc(C(=O)O)cc5)c5ccc2[n-]5)C=C4)C=C3)cc1.[Fe+2] [FeTCPP, Iron (III) meso 5,10,15,20-tetrakis-(4-carboxy-phenyl) porphyrin]	about 37%	20	140	13	slow the progression of motor neuron death	about 148 days	prolong survival of cultured motor neurons	as effective as BDNF	90	90	virtually identical to the 24 h survival results	0.01	90	not toxic				
C[n+]1ccc(-c2c3nc(c(-c4cc[n+](C)cc4)c4ccc([n-]4)c(-c4cc[n+](C)cc4)c4nc(c(-c5cc[n+](C)cc5)c5ccc2[n-]5)C=C4)C=C3)cc1.[Cl-].[Cl-].[Cl-].[Cl-].[Cl-].[Mn+3] [MnTMPyP, Manganese (III) meso-tetra-(N-methyl-4-pyridyl)-porphine chloride]															12.3	much less inhibitory effect	1.5	much less effect
